Test results from ChEMBL document CHEMBL1165854, “Computational screening for membrane-directed inhibitors of mast cell activation” (Eur J Med Chem, 2010).

Assays:
RBL-2H3 [1] = experiment: Inhibition of rat RBL2H3 […] assessed as reduction of beta hexasaminidase release; format: functional, cell-based
RBL-2H3 [2] = experiment: Inhibition of rat RBL2H3 […] assessed as reduction of beta hexasaminidase release at 10 uM; format: functional
[3] = Toxicity in rat RBL2H3 cells; format: cell-based, RBL-2H3; conditions: read-out: MTD
RBL-2H3 [4] = experiment: Inhibition of rat RBL2H3 […] assessed as reduction of beta hexasaminidase release at 25 uM; format: functional

Row | Structure (SMILES) | IC50 (RBL-2H3 [1]) [µM] | inhibition at 10 µM (RBL-2H3 [2]) [%] | MNTC [3] [µM] | inhibition at 25 µM (RBL-2H3 [4]) [%]
1 | CCCCCCCCCCCCCCCCOP(=O)([O-])OCC[N+](C)(CC)CC | 4.4 | 88 | 50 | –
2 | CCCCCCCCCCCCCCCCOC(=O)C[n+]1csc(CCO)c1C | 5.5 | – | 50 | 93
3 | CCCCCCCCCCCCCCCCNc1c2c(nc3c(C)cc(C)cc13)CC(C)(C)CC2=O | – | – | – | 7
4 | CCCCCCCCCCCCCCCCSCC(COC)COP(=O)([O-])OCC[N+](C)(C)C (stereo not drawn) [ILMOFOSINE] | 6.4 | 84 | 50 | –
5 | CCCCCCCCCCCCCCCCCCOP(=O)([O-])OC1CC[N+](C)(C)CC1 [PERIFOSINE] | 5 | 88 | 25 | –
6 | CCCCCCCCCCCCCCCCCC(=O)Nc1c(C)c(CC)nc2ccccc12 | – | – | – | 10
7 | CCCCCCCCCCCCCCCCOP(=O)([O-])OC1CC2CCC(C1)[N+]2(C)C (stereo not drawn) | 5.7 | 82 | 25 | –
8 | CCCCCCCCCCCCCCCCCCOC[C@H](COP(=O)([O-])OCC[N+](C)(C)C)OC [(R)-EDELFOSINE] | 7.1 | – | 25 | 79
9 | CCCCCCCCCCCCCCCCOP(=O)([O-])OCC[N+](C)(C)C [MILTEFOSINE] | 4.6 | 87 | 25 | –
